Patent US20210077469A1, “PHARMACEUTICAL COMBINATIONS OF EGFR INHIBITORS AND METHODS OF USE THEREOF” (DANA-FARBER CANCER INSTITUTE, INC., priority 2018, published 2021)

Molecular target: L858R/T790M EGFR (Homo sapiens, UniProt P00533, L858R/T790M)
Settings: Ba/F3 cells harboring L858R/T790M EGFR treated with inhibitor; lysates immunoprecipitated by biotinylated Compound A; FIG. 2A
Procedure: 15-20 μg of proteins lysates were aliquoted and loaded at the same time as the pull down assay to ensure the presence of EGFR protein, phospho-EGFR activity. Tubulin expression was assessed to ensure even loading of gels. 500 μg of protein was incubated with either biotinylated-linker (control) or with biotinylated Compound A for two hours before 50% NeutrAvidin agarose beads (Thermo Fisher Scientific) slurry was added for an hour to precipitate the EGFR that was associated to the biotinylated allosteric inhibitor. The beads were then washed three times with PBS containing 1% IGEPAL and an insulin syringe was used to remove extraneous buffer before the samples were suspended in 2×SDS sample preparation buffer for Western blotting analyses. All experiments were performed at least three times.

Chain of L858R/T790M EGFR (P00533 25-1210 T790M/L858R): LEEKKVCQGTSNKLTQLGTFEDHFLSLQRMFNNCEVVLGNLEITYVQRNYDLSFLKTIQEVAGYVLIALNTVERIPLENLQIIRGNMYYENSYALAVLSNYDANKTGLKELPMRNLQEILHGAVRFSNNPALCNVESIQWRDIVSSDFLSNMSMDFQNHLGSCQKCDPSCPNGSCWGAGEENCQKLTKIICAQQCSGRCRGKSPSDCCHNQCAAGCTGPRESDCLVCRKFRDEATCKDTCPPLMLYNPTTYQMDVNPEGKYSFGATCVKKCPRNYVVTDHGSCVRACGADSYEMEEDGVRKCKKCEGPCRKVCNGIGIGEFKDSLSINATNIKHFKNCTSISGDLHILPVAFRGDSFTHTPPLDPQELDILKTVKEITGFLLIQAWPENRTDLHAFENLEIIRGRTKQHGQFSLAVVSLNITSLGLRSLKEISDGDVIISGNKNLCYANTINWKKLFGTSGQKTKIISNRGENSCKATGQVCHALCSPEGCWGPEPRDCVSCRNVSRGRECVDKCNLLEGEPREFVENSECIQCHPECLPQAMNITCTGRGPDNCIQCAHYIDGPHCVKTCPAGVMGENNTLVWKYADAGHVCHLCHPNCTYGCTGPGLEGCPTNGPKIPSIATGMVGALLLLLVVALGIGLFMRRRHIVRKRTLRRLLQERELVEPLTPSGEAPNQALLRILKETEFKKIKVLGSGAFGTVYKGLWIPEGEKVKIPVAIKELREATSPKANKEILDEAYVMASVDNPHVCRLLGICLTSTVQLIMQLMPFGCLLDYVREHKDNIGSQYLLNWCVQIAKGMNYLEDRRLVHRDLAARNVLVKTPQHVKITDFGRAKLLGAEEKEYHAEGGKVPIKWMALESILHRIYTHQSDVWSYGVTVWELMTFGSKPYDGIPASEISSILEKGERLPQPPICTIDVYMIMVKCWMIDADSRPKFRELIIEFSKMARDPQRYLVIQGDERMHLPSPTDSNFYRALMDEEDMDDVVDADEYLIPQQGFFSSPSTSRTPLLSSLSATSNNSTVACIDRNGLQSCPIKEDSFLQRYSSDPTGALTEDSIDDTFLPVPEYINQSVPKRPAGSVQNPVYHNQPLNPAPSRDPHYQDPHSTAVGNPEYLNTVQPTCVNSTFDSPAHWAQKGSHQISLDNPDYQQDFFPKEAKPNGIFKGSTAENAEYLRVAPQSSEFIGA

Compound: C=CC(=O)Nc1cccc(Oc2nc(Nc3ccc(N4CCN(C)CC4)cc3OC)ncc2Cl)c1 [WZ-4002]
- interference with binding of Compound A to EGFR: interfere
